Test results published in PMC3335078, “Length and Amino Acid Sequence of Peptides Substituted for the 5-HT3A Receptor M3M4 Loop May Affect Channel Expression and Desensitization” (PLoS ONE, 2012).

Key:
[1] = biological target: T1, 5-HT3A M3M4 loop SQPAAAA construct (Mus musculus, UniProt P23979); experiment: Two-electrode voltage clamp, oocytes expressing SQPAAAA loop construct; assay type: cell-based; details: 10 µM 5-HT, Xenopus oocytes
T1 construct: expressed in transfected cells; host or cells: Xenopus laevis oocytes injected with mRNA
Text: (§1) The mouse 5-HT3A cDNA with an N-terminal V5 epitope tag was cloned into the pXOON vector as previously described, and is referred to in this paper as “wild-type” (WT). The starting construct for all of the M3M4 loop replacement constructs used in this work was the 5-HT3A-ΔM3M4 construct formed by splicing the cytoplasmic end of M3 (M3-LVHK/QDLQRP…) to the cytoplasmic end of M4 (…WLRVGY/VLDRLL-M4). The splice was made at the site of the “/” to yield the sequence M3-LVHK/VLDRLL-M4 [34]. This removed 115 residues predicted to form the M3M4 loop.
(§2) The construction of the 5-HT3A-glvM3M4 chimera with the 5-HT3A M3M4 loop replaced by the GLIC heptapeptide M3M4 loop (SQPARAA) was described previously. Point mutations, alanine and Gly-Ser-Ala insertions into the 5-HT3A-ΔM3M4 construct were generated with the Quikchange site directed mutagenesis procedure (Stratagene, La Jolla, CA). […]
(§3) Currents were recorded under two-electrode voltage clamp from oocytes 2–5 d post-injection as described previously. […]
(§4) Desensitization rates were determined by fitting a single exponential decay function to the current data with Prism 4 software (GraphPad Software). Significant differences compared with wild-type were determined by a one-way ANOVA (p<0.05) using Dunnett's multiple comparison post-hoc test (p<0.05). […]

[2] = biological target: T2, 5-HT3A M3M4 loop SQPAEAA construct (Mus musculus, UniProt P23979); experiment: Two-electrode voltage clamp, oocytes expressing SQPAEAA loop construct; assay type: cell-based; details: 10 µM 5-HT, Xenopus oocytes
T2 construct: expressed in transfected cells; host or cells: Xenopus laevis oocytes injected with mRNA
Text: as §1, §2, §3, §4

[3] = biological target: T3, 5-HT3A construct with single glycine in place of the single alanine (Mus musculus, UniProt P23979, DELINS338-452G); experiment: Two-electrode voltage clamp, oocytes expressing single glycine loop construct; assay type: cell-based; details: Xenopus oocytes, data not shown
T3 construct: expressed in transfected cells; host or cells: Xenopus laevis oocytes injected with mRNA
Text: as §1, §2, §3, §4

[4] = biological target: T4, 5-HT3A-A4 (M3M4 loop replaced by four alanines) (Mus musculus, UniProt P23979); experiment: Two-electrode voltage clamp, oocytes expressing 5-HT3A-A4; assay type: cell-based
T4 construct: expressed in transfected cells; host or cells: Xenopus laevis oocytes injected with mRNA
T4 sequence (P23979 with tags, fused parts or gaps isoform P23979-2 limits assumed): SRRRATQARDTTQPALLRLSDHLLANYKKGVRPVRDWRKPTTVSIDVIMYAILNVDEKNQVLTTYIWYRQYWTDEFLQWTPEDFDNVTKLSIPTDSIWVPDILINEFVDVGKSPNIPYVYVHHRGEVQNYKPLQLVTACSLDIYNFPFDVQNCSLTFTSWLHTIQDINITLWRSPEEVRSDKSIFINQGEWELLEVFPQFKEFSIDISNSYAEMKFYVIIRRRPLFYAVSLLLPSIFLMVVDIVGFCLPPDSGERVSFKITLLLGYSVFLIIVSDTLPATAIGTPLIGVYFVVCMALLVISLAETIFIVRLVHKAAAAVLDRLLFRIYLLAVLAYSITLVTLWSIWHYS
Text: as §1
The construction of the 5-HT3A-glvM3M4 chimera with the 5-HT3A M3M4 loop replaced by the GLIC heptapeptide M3M4 loop (SQPARAA) was described previously. Point mutations, alanine and Gly-Ser-Ala insertions into the 5-HT3A-ΔM3M4 construct were generated with the Quikchange site directed mutagenesis procedure (Stratagene, La Jolla, CA). The entire coding region of all mutant constructs was verified by DNA sequencing (Albert Einstein College of Medicine DNA Sequencing Facility). The pXOON plasmid was linearized using NheI and capped mRNA prepared with T7 RNA polymerase (mMessage mMachine, Ambion, Austin, TX).
Use of Xenopus laevis in this study was carried out in strict accordance with the recommendations in the Guide for the Care and Use of Laboratory Animals of the National Institutes of Health. The protocol was approved by the Albert Einstein College of Medicine Animal Care and Use Committee (Protocol Number: 20081201). All surgery was performed under tricaine anesthesia, and all efforts were made to minimize suffering. Oocyctes were harvested from Xenopus (Nasco Science, Fort Atkinson, WI) anesthetized with 0.15% tricaine. […]
as §3, §4

5-HT3A-A5 = biological target: T5, 5-HT3A-A5 (Mus musculus, UniProt P23979); experiment: Radioactive 5-HT binding to oocytes expressing 5-HT3A-A5; details: 150 nM [3H]5-HT + 10 µM 5-HT, 5 min, 45 s cold wash
T5 construct: expressed in transfected cells; host or cells: Xenopus laevis oocytes injected with mRNA
Procedure: (§5) Assays were terminated by five washes with ice cold CFFR buffer, followed by solubilization of the oocytes individually with 200 µl 5% SDS. Total wash time was 45 s. […] All data points represent the average of at least fifteen individual oocytes derived from three separate oocyte isolations.
(§6) To determine the extent of non-specific binding, all binding experiments were performed in parallel with diethylpyrocarbonate-(DEPC)-treated-water injected oocytes or uninjected oocytes.

[5] = biological target: T6, 5-HT3A receptor wild-type (Mus musculus, UniProt P23979); experiment: Radioactive 5-HT binding to oocytes expressing WT 5-HT3A; details: 150 nM [3H]5-HT + 10 µM 5-HT, 5 min room temperature, 45 s cold wash
T6 construct: unrelated to the structural/functional states accessible to a normal full-length 5-HT3A receptor; expressed in transfected cells; host or cells: Xenopus laevis oocytes injected with mRNA
Procedure: as §5, §6

[6] = biological target: T7, 5-HT3A ESQPA-M3M4 loop construct (Mus musculus, UniProt P23979); experiment: Two-electrode voltage clamp, oocytes expressing ESQPA-M3M4 loop construct; assay type: cell-based; details: up to 50 µM 5-HT, Xenopus oocytes
T7 construct: expressed in transfected cells; host or cells: Xenopus laevis oocytes injected with mRNA
Text: as §1, §2, §3, §4

[7] = biological target: T8, 5-HT3A M3M4 loop GSAGSAGSA mutant (Mus musculus, UniProt P23979); experiment: Two-electrode voltage clamp, oocytes expressing […] M3M4 mutant; assay type: cell-based; details: Xenopus oocytes
T8 construct: expressed in transfected cells; host or cells: Xenopus laevis oocytes injected with mRNA
Text: as §1, §2, §3, §4

5-HT3A-A7 = biological target: T9, 5-HT3A-A7 (Mus musculus, UniProt P23979); experiment: Radioactive 5-HT binding to oocytes expressing 5-HT3A-A7; details: 150 nM [3H]5-HT + 10 µM 5-HT, 5 min, 45 s cold wash
T9 construct: expressed in transfected cells; host or cells: Xenopus laevis oocytes injected with mRNA
Procedure: as §5, §6

T7 sequence (P23979 with tags, fused parts or gaps isoform P23979-2 limits assumed): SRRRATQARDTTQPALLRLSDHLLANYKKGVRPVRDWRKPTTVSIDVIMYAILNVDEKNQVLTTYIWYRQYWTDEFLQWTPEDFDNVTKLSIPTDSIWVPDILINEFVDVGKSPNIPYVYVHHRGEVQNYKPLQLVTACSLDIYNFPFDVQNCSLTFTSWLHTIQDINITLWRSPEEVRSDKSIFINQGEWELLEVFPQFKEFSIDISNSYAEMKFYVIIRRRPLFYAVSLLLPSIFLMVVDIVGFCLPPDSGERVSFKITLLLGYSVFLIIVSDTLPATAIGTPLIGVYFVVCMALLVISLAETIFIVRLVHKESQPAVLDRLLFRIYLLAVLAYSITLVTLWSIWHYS
T3 sequence (P23979 with tags, fused parts or gaps isoform P23979-2 DELINS338-452G limits assumed): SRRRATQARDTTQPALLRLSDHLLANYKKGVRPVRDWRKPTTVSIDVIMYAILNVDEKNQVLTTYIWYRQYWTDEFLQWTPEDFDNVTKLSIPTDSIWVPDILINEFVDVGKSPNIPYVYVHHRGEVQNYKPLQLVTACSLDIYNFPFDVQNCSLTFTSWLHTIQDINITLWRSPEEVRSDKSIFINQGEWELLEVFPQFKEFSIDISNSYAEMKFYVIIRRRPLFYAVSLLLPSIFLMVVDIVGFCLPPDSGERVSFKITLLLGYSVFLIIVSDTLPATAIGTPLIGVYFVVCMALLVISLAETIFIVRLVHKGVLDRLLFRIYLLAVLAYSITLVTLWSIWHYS
T9 sequence (P23979 with tags, fused parts or gaps isoform P23979-2 limits assumed): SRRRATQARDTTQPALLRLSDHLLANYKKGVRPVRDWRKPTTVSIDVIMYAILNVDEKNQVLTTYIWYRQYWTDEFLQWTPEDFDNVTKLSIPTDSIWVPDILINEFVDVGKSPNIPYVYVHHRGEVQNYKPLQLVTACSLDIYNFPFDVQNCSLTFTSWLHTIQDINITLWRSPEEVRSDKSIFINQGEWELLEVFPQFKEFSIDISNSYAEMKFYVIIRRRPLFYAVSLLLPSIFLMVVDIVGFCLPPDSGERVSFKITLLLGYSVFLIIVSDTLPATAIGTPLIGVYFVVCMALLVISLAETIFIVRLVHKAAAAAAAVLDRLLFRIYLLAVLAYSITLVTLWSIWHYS
T8 sequence (P23979 with tags, fused parts or gaps isoform P23979-2 limits assumed, change not shown): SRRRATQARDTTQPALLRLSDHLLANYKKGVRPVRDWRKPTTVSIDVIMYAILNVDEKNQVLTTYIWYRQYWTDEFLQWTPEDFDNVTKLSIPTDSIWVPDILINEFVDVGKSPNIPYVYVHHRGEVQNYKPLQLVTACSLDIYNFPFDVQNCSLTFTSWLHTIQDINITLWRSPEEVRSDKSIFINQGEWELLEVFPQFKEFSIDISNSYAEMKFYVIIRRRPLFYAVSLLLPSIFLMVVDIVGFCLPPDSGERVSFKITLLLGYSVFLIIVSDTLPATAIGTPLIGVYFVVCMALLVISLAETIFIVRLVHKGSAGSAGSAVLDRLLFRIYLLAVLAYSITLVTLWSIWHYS
T1 sequence (P23979 with tags, fused parts or gaps): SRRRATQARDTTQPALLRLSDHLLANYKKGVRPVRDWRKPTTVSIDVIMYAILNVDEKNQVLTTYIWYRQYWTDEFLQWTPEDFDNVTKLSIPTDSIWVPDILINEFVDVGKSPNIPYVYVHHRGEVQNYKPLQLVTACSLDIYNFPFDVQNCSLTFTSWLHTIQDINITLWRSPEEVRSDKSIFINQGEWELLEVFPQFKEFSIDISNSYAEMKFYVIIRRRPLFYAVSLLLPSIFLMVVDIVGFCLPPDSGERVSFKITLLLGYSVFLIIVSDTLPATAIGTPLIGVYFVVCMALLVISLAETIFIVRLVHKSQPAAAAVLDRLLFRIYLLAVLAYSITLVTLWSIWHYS
T6 sequence (P23979 24-483 isoform P23979-2 limits assumed): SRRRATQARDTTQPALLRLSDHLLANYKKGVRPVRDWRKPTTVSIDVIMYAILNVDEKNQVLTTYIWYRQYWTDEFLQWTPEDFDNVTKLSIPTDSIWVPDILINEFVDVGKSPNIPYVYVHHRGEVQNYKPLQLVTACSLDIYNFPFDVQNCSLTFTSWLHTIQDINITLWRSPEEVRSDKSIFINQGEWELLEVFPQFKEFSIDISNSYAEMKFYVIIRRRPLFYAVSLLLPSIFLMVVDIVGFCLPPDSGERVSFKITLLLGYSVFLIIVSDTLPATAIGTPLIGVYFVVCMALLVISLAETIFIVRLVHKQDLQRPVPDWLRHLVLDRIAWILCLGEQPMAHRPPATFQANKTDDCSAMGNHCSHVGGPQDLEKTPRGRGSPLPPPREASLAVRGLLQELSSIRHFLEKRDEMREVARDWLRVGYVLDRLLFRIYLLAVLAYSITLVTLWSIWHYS
T5 sequence (P23979 with tags, fused parts or gaps isoform P23979-2 limits assumed): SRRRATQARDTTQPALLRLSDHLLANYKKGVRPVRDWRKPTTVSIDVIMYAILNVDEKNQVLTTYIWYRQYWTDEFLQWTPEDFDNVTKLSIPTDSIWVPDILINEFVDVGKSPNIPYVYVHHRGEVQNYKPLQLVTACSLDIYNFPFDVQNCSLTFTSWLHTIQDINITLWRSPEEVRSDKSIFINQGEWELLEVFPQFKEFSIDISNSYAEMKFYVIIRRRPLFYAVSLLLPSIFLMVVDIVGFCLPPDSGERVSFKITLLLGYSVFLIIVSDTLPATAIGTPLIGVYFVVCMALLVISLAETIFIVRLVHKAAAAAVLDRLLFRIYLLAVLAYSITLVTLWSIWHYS
T2 sequence (P23979 with tags, fused parts or gaps): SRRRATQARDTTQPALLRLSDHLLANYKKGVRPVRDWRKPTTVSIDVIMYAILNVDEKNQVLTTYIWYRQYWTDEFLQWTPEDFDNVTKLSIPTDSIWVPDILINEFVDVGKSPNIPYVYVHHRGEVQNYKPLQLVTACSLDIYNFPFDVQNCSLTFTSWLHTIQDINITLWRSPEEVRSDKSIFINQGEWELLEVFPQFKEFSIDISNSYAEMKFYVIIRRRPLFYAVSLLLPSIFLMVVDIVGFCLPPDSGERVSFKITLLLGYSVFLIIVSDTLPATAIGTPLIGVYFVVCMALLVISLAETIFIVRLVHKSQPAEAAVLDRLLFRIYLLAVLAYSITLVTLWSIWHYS

SMILES: NCCc1c[nH]c2ccc(O)cc12 [5-HT, 5-hydroxytryptamine]
- 5-HT induced current [1]: large currents
- 5-HT induced current [2]: large currents
- 5-HT induced current [3]: neither construct generated any 5-HT induced currents
- 10–90% Activation rise time ([4]; 10 µM 5-HT): 487 ± 25 ms
- Imax (peak current) ([4]; 10 µM 5-HT, Xenopus oocytes, -60 mV): 7100±400 nA
- Desensitization time constant τ ([4]; prolonged 10 µM 5-HT): 56 ± 9 s
- Radiolabeled 5-HT bound per oocyte (5-HT3A-A5): 0.40±0.03 pmol per oocyte
- Radiolabeled 5-HT bound per oocyte [5]: 2.50±0.3 pmol per oocyte
- 5-HT induced current [6]: no currents were observed
- 5-HT induced current [7]: no detectable currents
- Radiolabeled 5-HT bound per oocyte (5-HT3A-A7): 0.40±0.08 pmol per oocyte
